Source: the supplement of paper PMC4862054

tested on: MDA-MB-468; assay: normalised viability (% of control), CellTiter-Blue; higher = more viable cells (about 100 = DMSO control); settings: 10000 nM; incubation time: 72 h
Method in brief: (§1)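 Vehicle (100) and a positive kill control (0) anchored the normalisation of each plate, and Z'-factor was used for quality control. Breast cancer cell lines in 20 µl suspension were incubated 72 h over compound in 5 µl medium in 384-well plates, followed by CellTiter-Blue at 560/590 nm. The value is normalised viability at a single listed concentration of the series.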

Compound	normalised viability [%]
COc1cc(OC2CCN(C)CC2)ccc1Nc1ncc2c(n1)n(C1CCCC1)c(=O)n2C [AZ 3146]	53.3
CN(C)c1nc(N(C)C)nc(N(C)C)n1 [Altretamine]	103
COC(=O)c1ccc2c(c1)NC(=O)/C2=C(\Nc1ccc(N(C)C(=O)CN2CCN(C)CC2)cc1)c1ccccc1 [BIBF 1120]	17.6
Nc1cc(C(F)(F)F)c(-c2cc(N3CCOCC3)nc(N3CCOCC3)n2)cn1 [BKM-120]	15.3
O=C(/C=C/c1cccc(S(=O)(=O)Nc2ccccc2)c1)NO [Belinostat]	16.3
C=C1C[C@@H]2[C@H](CC[C@]3(C)C(=O)CC[C@@H]23)[C@@]2(C)C=CC(=O)C=C12 [Exemestane]	96.5

same assay, conditions: 40000 nM; incubation time: 72 h

Compound	normalised viability [%]
O=P1(N(CCCl)CCCl)NCCCO1 (stereo unspecified) [Cyclophosphamide]	106

tested on: MFM-223; assay: as above; settings: 10 nM; incubation time: 72 h
Method in brief: as §1

Compound	normalised viability [%]
Cc1cc(Nc2cc(CN3CCOCC3)c3nc(C)c(Cc4ccc(Cl)cc4F)n3n2)n[nH]1	102
N#Cc1ccc(COC[C@H]2O[C@@H](n3c(NCc4ccc(Cl)c(Cl)c4)nc4c(N)ncnc43)[C@H](O)[C@@H]2O)cc1	93
COc1cc(OC2CCN(C)CC2)ccc1Nc1ncc2c(n1)n(C1CCCC1)c(=O)n2C [AZ 3146]	102
CN(C)c1nc(N(C)C)nc(N(C)C)n1 [Altretamine]	96.2
COC(=O)c1ccc2c(c1)NC(=O)/C2=C(\Nc1ccc(N(C)C(=O)CN2CCN(C)CC2)cc1)c1ccccc1 [BIBF 1120]	99.5
Nc1cc(C(F)(F)F)c(-c2cc(N3CCOCC3)nc(N3CCOCC3)n2)cn1 [BKM-120]	92.2
O=C(/C=C/c1cccc(S(=O)(=O)Nc2ccccc2)c1)NO [Belinostat]	87.8
C=C1C[C@@H]2[C@H](CC[C@]3(C)C(=O)CC[C@@H]23)[C@@]2(C)C=CC(=O)C=C12 [Exemestane]	90.6

same assay, conditions: 40 nM; incubation time: 72 h

Compound	normalised viability [%]
O=P1(N(CCCl)CCCl)NCCCO1 (stereo unspecified) [Cyclophosphamide]	92.1

same assay, conditions: 1000 nM; incubation time: 72 h

Compound	normalised viability [%]
Cc1cc(Nc2cc(CN3CCOCC3)c3nc(C)c(Cc4ccc(Cl)cc4F)n3n2)n[nH]1	50.6
N#Cc1ccc(COC[C@H]2O[C@@H](n3c(NCc4ccc(Cl)c(Cl)c4)nc4c(N)ncnc43)[C@H](O)[C@@H]2O)cc1	101
COc1cc(OC2CCN(C)CC2)ccc1Nc1ncc2c(n1)n(C1CCCC1)c(=O)n2C [AZ 3146]	102
CN(C)c1nc(N(C)C)nc(N(C)C)n1 [Altretamine]	98
COC(=O)c1ccc2c(c1)NC(=O)/C2=C(\Nc1ccc(N(C)C(=O)CN2CCN(C)CC2)cc1)c1ccccc1 [BIBF 1120]	57
Nc1cc(C(F)(F)F)c(-c2cc(N3CCOCC3)nc(N3CCOCC3)n2)cn1 [BKM-120]	60.2
O=C(/C=C/c1cccc(S(=O)(=O)Nc2ccccc2)c1)NO [Belinostat]	37.2
C=C1C[C@@H]2[C@H](CC[C@]3(C)C(=O)CC[C@@H]23)[C@@]2(C)C=CC(=O)C=C12 [Exemestane]	101

same assay, conditions: 4000 nM; incubation time: 72 h

Compound	normalised viability [%]
O=P1(N(CCCl)CCCl)NCCCO1 (stereo unspecified) [Cyclophosphamide]	98.9

same assay, conditions: 10000 nM; incubation time: 72 h

Compound	normalised viability [%]
Cc1cc(Nc2cc(CN3CCOCC3)c3nc(C)c(Cc4ccc(Cl)cc4F)n3n2)n[nH]1	44.8
N#Cc1ccc(COC[C@H]2O[C@@H](n3c(NCc4ccc(Cl)c(Cl)c4)nc4c(N)ncnc43)[C@H](O)[C@@H]2O)cc1	93.6
COc1cc(OC2CCN(C)CC2)ccc1Nc1ncc2c(n1)n(C1CCCC1)c(=O)n2C [AZ 3146]	84.4
CN(C)c1nc(N(C)C)nc(N(C)C)n1 [Altretamine]	89.6
COC(=O)c1ccc2c(c1)NC(=O)/C2=C(\Nc1ccc(N(C)C(=O)CN2CCN(C)CC2)cc1)c1ccccc1 [BIBF 1120]	36.6
Nc1cc(C(F)(F)F)c(-c2cc(N3CCOCC3)nc(N3CCOCC3)n2)cn1 [BKM-120]	14.5
O=C(/C=C/c1cccc(S(=O)(=O)Nc2ccccc2)c1)NO [Belinostat]	11.1
C=C1C[C@@H]2[C@H](CC[C@]3(C)C(=O)CC[C@@H]23)[C@@]2(C)C=CC(=O)C=C12 [Exemestane]	108

same assay, conditions: 40000 nM; incubation time: 72 h

Compound	normalised viability [%]
O=P1(N(CCCl)CCCl)NCCCO1 (stereo unspecified) [Cyclophosphamide]	98.5

tested on: SK-BR-3; assay: as above; settings: 10 nM; incubation time: 72 h
Method in brief: as §1

Compound	normalised viability [%]
Cc1cc(Nc2cc(CN3CCOCC3)c3nc(C)c(Cc4ccc(Cl)cc4F)n3n2)n[nH]1	102
N#Cc1ccc(COC[C@H]2O[C@@H](n3c(NCc4ccc(Cl)c(Cl)c4)nc4c(N)ncnc43)[C@H](O)[C@@H]2O)cc1	115
COc1cc(OC2CCN(C)CC2)ccc1Nc1ncc2c(n1)n(C1CCCC1)c(=O)n2C [AZ 3146]	104
CN(C)c1nc(N(C)C)nc(N(C)C)n1 [Altretamine]	106
COC(=O)c1ccc2c(c1)NC(=O)/C2=C(\Nc1ccc(N(C)C(=O)CN2CCN(C)CC2)cc1)c1ccccc1 [BIBF 1120]	101
Nc1cc(C(F)(F)F)c(-c2cc(N3CCOCC3)nc(N3CCOCC3)n2)cn1 [BKM-120]	101
O=C(/C=C/c1cccc(S(=O)(=O)Nc2ccccc2)c1)NO [Belinostat]	86.9
C=C1C[C@@H]2[C@H](CC[C@]3(C)C(=O)CC[C@@H]23)[C@@]2(C)C=CC(=O)C=C12 [Exemestane]	85.2

same assay, conditions: 40 nM; incubation time: 72 h

Compound	normalised viability [%]
O=P1(N(CCCl)CCCl)NCCCO1 (stereo unspecified) [Cyclophosphamide]	105

same assay, conditions: 1000 nM; incubation time: 72 h

Compound	normalised viability [%]
Cc1cc(Nc2cc(CN3CCOCC3)c3nc(C)c(Cc4ccc(Cl)cc4F)n3n2)n[nH]1	70.9
N#Cc1ccc(COC[C@H]2O[C@@H](n3c(NCc4ccc(Cl)c(Cl)c4)nc4c(N)ncnc43)[C@H](O)[C@@H]2O)cc1	102
COc1cc(OC2CCN(C)CC2)ccc1Nc1ncc2c(n1)n(C1CCCC1)c(=O)n2C [AZ 3146]	86.8
CN(C)c1nc(N(C)C)nc(N(C)C)n1 [Altretamine]	113
COC(=O)c1ccc2c(c1)NC(=O)/C2=C(\Nc1ccc(N(C)C(=O)CN2CCN(C)CC2)cc1)c1ccccc1 [BIBF 1120]	91.8
Nc1cc(C(F)(F)F)c(-c2cc(N3CCOCC3)nc(N3CCOCC3)n2)cn1 [BKM-120]	24.4
O=C(/C=C/c1cccc(S(=O)(=O)Nc2ccccc2)c1)NO [Belinostat]	21.6
C=C1C[C@@H]2[C@H](CC[C@]3(C)C(=O)CC[C@@H]23)[C@@]2(C)C=CC(=O)C=C12 [Exemestane]	101

same assay, conditions: 4000 nM; incubation time: 72 h

Compound	normalised viability [%]
O=P1(N(CCCl)CCCl)NCCCO1 (stereo unspecified) [Cyclophosphamide]	102

same assay, conditions: 10000 nM; incubation time: 72 h

Compound	normalised viability [%]
Cc1cc(Nc2cc(CN3CCOCC3)c3nc(C)c(Cc4ccc(Cl)cc4F)n3n2)n[nH]1	30.5
N#Cc1ccc(COC[C@H]2O[C@@H](n3c(NCc4ccc(Cl)c(Cl)c4)nc4c(N)ncnc43)[C@H](O)[C@@H]2O)cc1	37.3
COc1cc(OC2CCN(C)CC2)ccc1Nc1ncc2c(n1)n(C1CCCC1)c(=O)n2C [AZ 3146]	74.5
CN(C)c1nc(N(C)C)nc(N(C)C)n1 [Altretamine]	100
COC(=O)c1ccc2c(c1)NC(=O)/C2=C(\Nc1ccc(N(C)C(=O)CN2CCN(C)CC2)cc1)c1ccccc1 [BIBF 1120]	42.8
Nc1cc(C(F)(F)F)c(-c2cc(N3CCOCC3)nc(N3CCOCC3)n2)cn1 [BKM-120]	9.47
O=C(/C=C/c1cccc(S(=O)(=O)Nc2ccccc2)c1)NO [Belinostat]	3.92
C=C1C[C@@H]2[C@H](CC[C@]3(C)C(=O)CC[C@@H]23)[C@@]2(C)C=CC(=O)C=C12 [Exemestane]	79.3

same assay, conditions: 40000 nM; incubation time: 72 h

Compound	normalised viability [%]
O=P1(N(CCCl)CCCl)NCCCO1 (stereo unspecified) [Cyclophosphamide]	110
